From paper PMC7180948, “New Insights into 4-Anilinoquinazolines as Inhibitors of Cardiac Troponin I–Interacting Kinase (TNNi3K)” (Molecules, 2020)

Legend:
Assay in all cases: biochemical
Design in all cases: KINOMEscan competition binding panel (Eurofins DiscoverX), single concentration, percent inhibition
Conditions in all cases: read-out: 15 at 1 µM % inhibition
[1] = target: T1, ABL1(H396P)-nonphosphorylated (Homo sapiens, UniProt P00519, H396P)
T1 construct: nonphosphorylated
Summary of the method: (§1)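 Binding was profiled in the KINOMEscan panel of over 400 human kinases, with each compound tested at a single concentration of 1 µM to map selectivity.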

BMPR1A = BMPR1A (Homo sapiens, UniProt P36894)
Summary of the method: as §1

CAMK2A = CAMK2A (Homo sapiens, UniProt Q9UQM7)
Summary of the method: as §1

CAMK2D = CAMK2D (Homo sapiens, UniProt Q13557)
Summary of the method: as §1

CAMK2G = CAMK2G (Homo sapiens, UniProt Q13555)
Summary of the method: as §1

CDC2L1 = target: T2, CDC2L1 (Homo sapiens, UniProt P21127)
T2 construct: gene CDK11B
Summary of the method: as §1

CHEK2 = CHEK2 (Homo sapiens, UniProt O96017)
Summary of the method: as §1

CIT = CIT (Homo sapiens, UniProt O14578)
Summary of the method: as §1

CSNK1G3 = CSNK1G3 (Homo sapiens, UniProt Q9Y6M4)
Summary of the method: as §1

ERBB3 = ERBB3 (Homo sapiens, UniProt P21860)
Summary of the method: as §1

ERK4 = target: T3, ERK4 (Homo sapiens, UniProt P31152)
T3 construct: gene MAPK4
Summary of the method: as §1

GSK3A = GSK3A (Homo sapiens, UniProt P49840)
Summary of the method: as §1

LATS1 = LATS1 (Homo sapiens, UniProt O95835)
Summary of the method: as §1

MST1R = MST1R (Homo sapiens, UniProt Q04912)
Summary of the method: as §1

PAK7 = target: T4, PAK7 (Homo sapiens, UniProt Q9P286)
T4 construct: gene PAK5
Summary of the method: as §1

PCTK3 = target: T5, PCTK3 (Homo sapiens, UniProt Q07002)
T5 construct: gene CDK18
Summary of the method: as §1

PIK3CA(E542K) = PIK3CA(E542K) (Homo sapiens, UniProt P42336, E542K)
Summary of the method: as §1

RIOK2 = RIOK2 (Homo sapiens, UniProt Q9BVS4)
Summary of the method: as §1

[2] = target: T6, RPS6KA5(Kin.Dom.1-N-terminal) (Homo sapiens, UniProt O75582)
T6 construct: Kin.Dom.1-N-terminal
Summary of the method: as §1

SBK1 = SBK1 (Homo sapiens, UniProt Q52WX2)
Summary of the method: as §1

SRPK2 = SRPK2 (Homo sapiens, UniProt P78362)
Summary of the method: as §1

STK16 = STK16 (Homo sapiens, UniProt O75716)
Summary of the method: as §1

SYK = SYK (Homo sapiens, UniProt P43405)
Summary of the method: as §1

WNK1 = WNK1 (Homo sapiens, UniProt Q9H4A3)
Summary of the method: as §1

T5 sequence (Q07002 whole entry): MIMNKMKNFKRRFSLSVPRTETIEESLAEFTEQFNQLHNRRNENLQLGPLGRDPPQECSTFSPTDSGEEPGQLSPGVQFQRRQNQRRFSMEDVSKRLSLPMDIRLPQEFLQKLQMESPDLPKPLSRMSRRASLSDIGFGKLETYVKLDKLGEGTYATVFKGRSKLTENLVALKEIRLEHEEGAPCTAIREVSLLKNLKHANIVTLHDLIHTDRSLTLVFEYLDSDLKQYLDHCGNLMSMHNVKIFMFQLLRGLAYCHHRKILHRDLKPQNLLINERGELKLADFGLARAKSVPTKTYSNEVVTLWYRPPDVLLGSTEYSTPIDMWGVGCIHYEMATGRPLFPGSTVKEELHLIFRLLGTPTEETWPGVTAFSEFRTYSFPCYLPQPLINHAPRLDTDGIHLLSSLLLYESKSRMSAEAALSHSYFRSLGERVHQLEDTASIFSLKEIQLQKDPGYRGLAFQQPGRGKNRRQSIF
GSK3A, sequence (P49840 whole entry): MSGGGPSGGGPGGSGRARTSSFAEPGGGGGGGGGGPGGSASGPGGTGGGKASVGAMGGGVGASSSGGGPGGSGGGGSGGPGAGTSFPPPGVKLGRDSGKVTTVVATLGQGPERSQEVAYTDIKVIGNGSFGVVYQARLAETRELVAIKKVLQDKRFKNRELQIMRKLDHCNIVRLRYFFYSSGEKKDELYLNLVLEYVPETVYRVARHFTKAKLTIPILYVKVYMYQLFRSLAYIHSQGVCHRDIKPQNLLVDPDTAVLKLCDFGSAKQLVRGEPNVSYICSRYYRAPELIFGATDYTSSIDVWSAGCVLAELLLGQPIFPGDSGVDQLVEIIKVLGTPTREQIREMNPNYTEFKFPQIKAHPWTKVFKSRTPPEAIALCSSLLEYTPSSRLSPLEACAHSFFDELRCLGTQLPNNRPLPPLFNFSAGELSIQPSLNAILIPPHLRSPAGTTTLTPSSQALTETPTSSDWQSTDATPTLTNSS
RIOK2, sequence (Q9BVS4 whole entry): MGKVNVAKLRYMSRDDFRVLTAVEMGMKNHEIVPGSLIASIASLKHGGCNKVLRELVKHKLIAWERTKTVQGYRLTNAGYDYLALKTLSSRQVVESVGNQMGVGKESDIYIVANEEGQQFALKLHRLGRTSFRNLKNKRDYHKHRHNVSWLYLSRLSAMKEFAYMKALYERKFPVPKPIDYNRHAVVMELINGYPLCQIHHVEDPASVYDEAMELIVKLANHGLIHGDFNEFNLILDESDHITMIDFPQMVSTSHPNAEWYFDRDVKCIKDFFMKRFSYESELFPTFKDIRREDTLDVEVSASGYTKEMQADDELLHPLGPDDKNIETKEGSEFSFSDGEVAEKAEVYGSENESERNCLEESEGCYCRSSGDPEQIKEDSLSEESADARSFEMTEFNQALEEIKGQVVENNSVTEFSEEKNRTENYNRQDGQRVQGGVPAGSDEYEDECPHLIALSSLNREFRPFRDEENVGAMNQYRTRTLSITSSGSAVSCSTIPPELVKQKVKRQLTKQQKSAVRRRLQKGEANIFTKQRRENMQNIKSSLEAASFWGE
STK16, sequence (O75716 whole entry): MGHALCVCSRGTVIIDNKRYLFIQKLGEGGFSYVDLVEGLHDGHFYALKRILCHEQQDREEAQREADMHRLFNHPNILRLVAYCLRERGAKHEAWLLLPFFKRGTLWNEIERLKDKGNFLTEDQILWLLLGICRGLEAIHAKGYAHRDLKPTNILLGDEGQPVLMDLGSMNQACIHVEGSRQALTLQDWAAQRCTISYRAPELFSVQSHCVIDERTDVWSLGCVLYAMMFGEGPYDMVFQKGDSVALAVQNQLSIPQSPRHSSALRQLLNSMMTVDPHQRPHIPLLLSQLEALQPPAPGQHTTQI
CAMK2A, sequence (Q9UQM7 whole entry): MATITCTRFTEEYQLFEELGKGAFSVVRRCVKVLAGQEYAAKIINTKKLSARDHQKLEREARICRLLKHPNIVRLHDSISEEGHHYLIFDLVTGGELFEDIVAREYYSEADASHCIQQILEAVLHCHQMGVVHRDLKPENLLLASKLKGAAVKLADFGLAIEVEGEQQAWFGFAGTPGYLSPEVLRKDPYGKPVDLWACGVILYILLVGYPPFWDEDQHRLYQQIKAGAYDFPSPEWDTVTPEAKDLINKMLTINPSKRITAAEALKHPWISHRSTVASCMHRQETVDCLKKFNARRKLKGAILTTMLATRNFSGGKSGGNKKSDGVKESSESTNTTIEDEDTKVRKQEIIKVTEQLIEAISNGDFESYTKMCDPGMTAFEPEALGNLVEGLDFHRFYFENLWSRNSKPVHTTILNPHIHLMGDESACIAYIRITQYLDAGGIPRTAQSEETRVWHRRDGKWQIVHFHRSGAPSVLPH
LATS1, sequence (O95835 whole entry): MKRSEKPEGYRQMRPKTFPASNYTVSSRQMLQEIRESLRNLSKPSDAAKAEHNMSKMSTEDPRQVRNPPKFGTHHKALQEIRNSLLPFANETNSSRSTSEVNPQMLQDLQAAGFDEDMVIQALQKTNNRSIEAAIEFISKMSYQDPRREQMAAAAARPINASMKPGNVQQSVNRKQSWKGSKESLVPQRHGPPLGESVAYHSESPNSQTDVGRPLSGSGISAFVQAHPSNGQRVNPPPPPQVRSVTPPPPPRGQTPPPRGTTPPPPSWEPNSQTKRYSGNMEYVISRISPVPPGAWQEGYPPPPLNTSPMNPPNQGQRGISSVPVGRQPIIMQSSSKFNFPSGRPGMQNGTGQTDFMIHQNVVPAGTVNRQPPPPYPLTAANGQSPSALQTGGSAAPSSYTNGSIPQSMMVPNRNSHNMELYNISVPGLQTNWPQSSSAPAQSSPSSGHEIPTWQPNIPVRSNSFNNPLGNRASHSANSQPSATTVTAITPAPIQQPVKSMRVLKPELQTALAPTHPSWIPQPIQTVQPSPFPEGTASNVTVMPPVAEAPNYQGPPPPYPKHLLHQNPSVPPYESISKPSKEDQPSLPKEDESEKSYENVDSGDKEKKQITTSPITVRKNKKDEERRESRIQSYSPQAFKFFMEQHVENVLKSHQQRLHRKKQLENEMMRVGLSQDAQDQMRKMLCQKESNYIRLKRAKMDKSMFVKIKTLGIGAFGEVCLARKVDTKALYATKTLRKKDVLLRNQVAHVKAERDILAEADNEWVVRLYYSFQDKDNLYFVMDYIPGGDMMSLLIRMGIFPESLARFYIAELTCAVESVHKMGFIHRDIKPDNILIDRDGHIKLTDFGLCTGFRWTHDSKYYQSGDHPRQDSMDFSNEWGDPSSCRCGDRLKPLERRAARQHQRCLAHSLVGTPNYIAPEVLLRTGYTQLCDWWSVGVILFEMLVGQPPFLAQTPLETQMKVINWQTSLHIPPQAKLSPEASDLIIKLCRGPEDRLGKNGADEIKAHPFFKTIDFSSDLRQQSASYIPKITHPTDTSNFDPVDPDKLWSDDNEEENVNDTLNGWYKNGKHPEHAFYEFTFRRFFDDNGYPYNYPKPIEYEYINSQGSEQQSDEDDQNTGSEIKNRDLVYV
ERBB3, sequence (P21860 whole entry): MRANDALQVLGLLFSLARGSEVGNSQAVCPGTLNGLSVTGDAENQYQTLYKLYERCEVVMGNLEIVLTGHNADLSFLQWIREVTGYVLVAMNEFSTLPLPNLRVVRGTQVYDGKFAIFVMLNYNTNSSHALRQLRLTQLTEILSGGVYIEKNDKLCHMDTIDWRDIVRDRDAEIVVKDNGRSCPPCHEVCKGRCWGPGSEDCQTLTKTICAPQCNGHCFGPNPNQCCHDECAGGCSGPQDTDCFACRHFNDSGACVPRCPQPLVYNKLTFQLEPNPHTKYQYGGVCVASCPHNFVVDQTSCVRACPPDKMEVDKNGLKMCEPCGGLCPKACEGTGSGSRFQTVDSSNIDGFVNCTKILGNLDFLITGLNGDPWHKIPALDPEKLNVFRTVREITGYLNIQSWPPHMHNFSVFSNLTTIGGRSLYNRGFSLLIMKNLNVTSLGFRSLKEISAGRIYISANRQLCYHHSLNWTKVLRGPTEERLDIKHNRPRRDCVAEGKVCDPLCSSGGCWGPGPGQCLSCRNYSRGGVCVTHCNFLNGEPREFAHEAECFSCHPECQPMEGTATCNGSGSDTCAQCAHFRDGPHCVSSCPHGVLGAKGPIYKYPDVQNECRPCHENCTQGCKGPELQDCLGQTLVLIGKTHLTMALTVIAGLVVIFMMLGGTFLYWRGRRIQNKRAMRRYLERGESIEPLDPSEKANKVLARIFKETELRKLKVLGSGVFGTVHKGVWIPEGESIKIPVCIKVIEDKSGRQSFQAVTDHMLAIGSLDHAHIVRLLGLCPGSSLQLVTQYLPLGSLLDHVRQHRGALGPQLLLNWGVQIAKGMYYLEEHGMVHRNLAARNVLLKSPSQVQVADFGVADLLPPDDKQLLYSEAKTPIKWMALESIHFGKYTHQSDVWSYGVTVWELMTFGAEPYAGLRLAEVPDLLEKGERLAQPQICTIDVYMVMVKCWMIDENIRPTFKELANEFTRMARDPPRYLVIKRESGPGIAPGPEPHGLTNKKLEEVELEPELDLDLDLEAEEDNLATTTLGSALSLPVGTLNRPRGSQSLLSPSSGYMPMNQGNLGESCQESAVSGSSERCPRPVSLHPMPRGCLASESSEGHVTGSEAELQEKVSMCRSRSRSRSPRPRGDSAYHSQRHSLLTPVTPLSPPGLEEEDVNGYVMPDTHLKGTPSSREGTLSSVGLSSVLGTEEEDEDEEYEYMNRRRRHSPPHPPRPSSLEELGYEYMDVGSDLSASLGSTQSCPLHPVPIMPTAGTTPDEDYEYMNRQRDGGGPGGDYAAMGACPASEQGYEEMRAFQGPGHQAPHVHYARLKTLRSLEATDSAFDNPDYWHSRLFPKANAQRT

CNS(=O)(=O)c1ccc(N(C)C)c(Nc2nc(C)nc3cc(OC)c(OC)cc23)c1 [compound 15, 3-((6,7-dimethoxy-2-methylquinazolin-4-yl)amino)-4-(dimethylamino)-N-methylbenzenesulfonamide]
inhibition at 1 µM [1]: 31%
inhibition at 1 µM (BMPR1A): 0%
inhibition at 1 µM (CAMK2A): 4%
inhibition at 1 µM (CAMK2D): 0%
inhibition at 1 µM (CAMK2G): 0%
inhibition at 1 µM (CDC2L1): 7%
inhibition at 1 µM (CHEK2): 13%
inhibition at 1 µM (CIT): 4%
inhibition at 1 µM (CSNK1G3): 0%
inhibition at 1 µM (ERBB3): 16%
inhibition at 1 µM (ERK4): 0%
inhibition at 1 µM (GSK3A): 0%
inhibition at 1 µM (LATS1): 14%
inhibition at 1 µM (MST1R): 9%
inhibition at 1 µM (PAK7): 0%
inhibition at 1 µM (PCTK3): 0%
inhibition at 1 µM (PIK3CA(E542K)): 22%
inhibition at 1 µM (RIOK2): 9%
inhibition at 1 µM [2]: 0%
inhibition at 1 µM (SBK1): 44%
inhibition at 1 µM (SRPK2): 16%
inhibition at 1 µM (STK16): 2%
inhibition at 1 µM (SYK): 0%
inhibition at 1 µM (WNK1): 22%
